# Source: US20150030566A1, “ANTIMICROBIAL PEPTIDE COMPOSITIONS FOR PLANTS” (Stellenbosch University, priority 2012, published 2015)
# Residues, ends and D or L forms follow the SMILES beside them.
# Experiments:
# fungal pathogens [1] = assay: Sterilization of field-gathered grapevine material for plant cultures; assay type: in vivo; settings: in the washing step or in the growth media; without a major detrimental effect to the plant material; results not shown
# Description: (§1) The Trc mix and GS were also tested for use in the sterilization of field-gathered grapevine material for use in plant cultures.
# [2] = system: African daisy (Gerbera hybrid); assay: Cut flower trials, Gerbera; assay type: in vivo; settings: GS at 35 mg/L alone or in the GS+Trc mix
# Description: Water uptake was initially better than observed for a commercial product for cut-flower preservation (FIG. 4A).
# (§2) Cut flower trials on mini hybrids of the African daisy (Gerbera hybrid) and blue larkspur (Delphinium hybrid) were conducted on 3-day old flowers. Flowers were prepared by cutting 3-5 cm of each stem and each placed separately in a measuring flask with 100 mL containing either no additive, Trc mix (35 mg/L for Gerbera and 25 mg/l for Delphinium), GS (35 mg/L for Gerbera and 25 mg/L for Delphinium), Trc mix+GS (combined 70 mg/L for Gerbera and combined 50 mg/L for Delphinium) or commercial additive for flower preservation. Flowers (6-12 per trial) were kept in a room with both natural and fluorescent lighting (16 hours light/day) at 22±1° C. The volume of water was monitored every 24 hours and noted for each flower.
# (§3) Flower condition was rated from 0 to 5, with 0=dead, 1=flower petals dehydrated, closed and drooping, 2=flower still partially open but dehydrated and drooping, 3=flower starts drooping, petals soft, 4=some petals becoming soft, flower still in good condition and 5=flower is in pristine condition with taught petals and stem/leaves.
# [3] = system: Trichoderma atroviride (wood isolate); assay: Microdilution broth assay; assay type: cell-based; design: unit not given beside the values
# Description: (§4) Microdilution broth and agar assays were used to assess the antifungal activity of the cyclic decapeptides in liquid media and on solid (gel) media, respectively.
# (§5) The antibacterial activity of the tyrocidines and gramicidin S against all the bacteria tested was determined by the methods described by Du Toit E A and Rautenbach M (2000) J. Microbiol. Methods, 42, 159-165. The antifungal activity of the tyrocidines against all the […] tested was determined by the methods described by Troskie A M, Vlok N M and Rautenbach M (2012) J. Microbiol. Methods, 91, 551-558.
# [4] = system: Cylindrocarpon liriodendri; assay: Microdilution broth assay; assay type: cell-based; design: unit not given beside the values
# Description: as §4, §5
# Escherichia coli HB101 = assay: Microdilution broth assay; assay type: cell-based; design: unit not given beside the values
# Description: as §4, §5
# [5] = system: Listeria monocytogenes B73-MR1; assay: Microdilution broth assay; assay type: cell-based; design: unit not given beside the values
# Description: as §4, §5
# [6] = system: Listeria monocytogenes B73; assay: Microdilution broth assay; assay type: cell-based; design: unit not given beside the values
# Description: as §4, §5
# [7] = system: Talaromyces ramulosus (peach isolate); assay: Microdilution broth assay; assay type: cell-based; design: unit not given beside the values
# Description: as §4, §5
# Bacillus subtilis OKB120 = assay: Microdilution broth assay; assay type: cell-based; design: unit not given beside the values
# Description: as §4, §5
# Bacillus subtilis OKB105 = assay: Microdilution broth assay; assay type: cell-based; design: unit not given beside the values
# Description: as §4, §5
# [8] = system: Micrococcus luteus NCTG 8340; assay: Microdilution broth assay; assay type: cell-based; design: unit not given beside the values
# Description: as §4, §5
# [9] = system: Talaromyces mineoluteus (peach isolate); assay: Microdilution broth assay; assay type: cell-based; design: unit not given beside the values
# Description: as §4, §5
# Bacillus subtilis 168 = assay: Microdilution broth assay; assay type: cell-based; design: unit not given beside the values
# Description: as §4, §5
# [10] = system: Bacillus subtilis ATCC21332; assay: Microdilution broth assay; assay type: cell-based; design: unit not given beside the values
# Description: as §4, §5
# [11] = system: Bacillus spizizenii ATCC 6633; assay: Microdilution broth assay; assay type: cell-based; design: unit not given beside the values
# Description: as §4, §5
# Botrytis cinerea = assay: Microdilution broth assay; assay type: cell-based; design: MIC + SEM / MIC against B. cinerea in PDB (n): unit not given beside the values
# Description: as §4, §5
# Fusarium verticilliodes = assay: Microdilution broth assay; assay type: cell-based
# Description: as §4, §5
# [12] = system: Penicillium digitatum (citrus isolate); assay: Microdilution broth assay; assay type: cell-based
# Description: as §4, §5
# [13] = system: Penicillium expansum (peach isolate); assay: Microdilution broth assay; assay type: cell-based
# Description: as §4, §5
# Fusarium oxysporum = assay: Microdilution broth assay; assay type: cell-based
# Description: as §4, §5
# [14] = system: Penicillium glabrum (wood isolate); assay: Microdilution broth assay; assay type: cell-based
# Description: as §4, §5
# [15] = system: Aspergillus fumigatus ATCC 204305; assay: Microdilution broth assay; assay type: cell-based
# Description: as §4, §5
# [16] = system: Penicillium digitatum (citrus isolate); assay: Agar assay; assay type: cell-based
# Description: as §4, §5
# [17] = system: Phaeoacremonium aleophilum; assay: Agar assay; assay type: cell-based
# Description: as §4, §5
# P. digitatum = assay: Preliminary trials on oranges, wound infections; assay type: in vivo; settings: 50 mg/L (50 ppm)
# Description: Promising results in preliminarily trials on oranges have also been observed, with 50% and 80% less wound infections by P. digitatum using 50 mg/L (50 ppm) Trc mix and GS, respectively.
# Fusarium solani [18] = assay: Agar (gel) assay; assay type: cell-based
# Description: as §4, §5
# Delphinium flowers = assay: Cut flower trials, Delphinium; assay type: in vivo, Delphinium hybrid
# Description: Trials with Delphinium flowers and 25 mg/L and 50 mg of GS or Trc mix and GS+Trc mix (50 mg/L combined concentration), were conducted.
# as §2, §3
# Fusarium solani [19] = assay: Microdilution broth assay; assay type: cell-based; design: MIC against F. solani in PDB (n): unit not given beside the values
# Description: as §4, §5
# fungal pathogens [20] = assay: Plant culture assay, fungal pathogens in growth media; assay type: in vivo; settings: without a major detrimental effect to the plant material
# Description: as §1
# Grapevine tissue culture plants were transferred to MS medium containing GS or Trc mix at a concentration of 15 μg/mL and incubated at 25° C. with a 16 h/8 h day night cycle. The growth and development of the grapevine plantlets were monitored and compared to the control set of plants which were maintained on MS-medium without GS or Trc mix.
# [21] = potato dextrose broth (low salt PDB)
smiles,measurement,setting,value
"CC(C)C[C@@H]1NC(=O)[C@H](CCCN)NC(=O)[C@H](C(C)C)NC(=O)C2CCCN2C(=O)[C@@H](Cc2ccccc2)NC(=O)[C@H](CC(C)C)NC(=O)[C@H](CCCN)NC(=O)[C@H](C(C)C)NC(=O)C2CCCN2C(=O)[C@@H](Cc2ccccc2)NC1=O (stereo partly shown) [GS, Cyclo-(VOLfPVOLfP)] (HELM PEPTIDE1{L.[dF].[O=C(C1CCCN1[*:1])[*:2]].V.[Orn].L.[dF].[O=C(C1CCCN1[*:1])[*:2]].V.[Orn]}$PEPTIDE1,PEPTIDE1,1:R1-10:R2$$$V2.0)",concentration sufficient to eliminate fungal pathogens,fungal pathogens [1],20 mg/L
same,benefit to flower survival,[2],did not benefit flower survival
same,phytotoxicity,[2],may have led to some phytotoxicity
same,MIC + SEM,[3],4.8 ± 0.3
same,MIC + SEM,[4],2.3 ± 0.1
same,MIC + SEM,Escherichia coli HB101,44
same,MIC + SEM,[5],5.6 ± 0.1
same,MIC + SEM,[6],9.9 ± 0.2
same,MIC + SEM,[7],3.0 ± 0.1
same,MIC + SEM,Bacillus subtilis OKB120,8-14
same,MIC + SEM,Bacillus subtilis OKB105,8-14
same,MIC + SEM,[8],28 ± 0.4
same,MIC + SEM,[9],4.2 ± 0.2
same,MIC + SEM,Bacillus subtilis 168,8-14
same,MIC + SEM,[10],8-14
same,MIC + SEM,[11],2.6 ± 0.2
same,MIC + SEM,"Botrytis cinerea; Broth, Botrytis cinerea",2.8 ± 0.3
same,MIC against B. cinerea in PDB (n),Botrytis cinerea; [21],1.8 ± 0.3
same,MIC + SEM,Fusarium verticilliodes,3.5 ± 0.3
same,MIC + SEM,[12],3-4
same,MIC + SEM,[13],3.7 ± 0.3
same,MIC + SEM,Fusarium oxysporum,2.6 ± 0.2
same,MIC + SEM,[14],4.0 ± 0.5
same,MIC + SEM,[15],8.6 ± 0.7
same,MIC + SEM,[16],<20
same,MIC + SEM,[17],<10
same,less wound infections by P. digitatum,P. digitatum,80%
same,MIC + SEM,"Fusarium solani [18]; Agar, Fusarium solani",5.5 ± 1.3
same,IC50 ± SEM,Fusarium solani [18]; F. solani on PDA,4.9 ± 1.2 µg/mL
same,MIC ± SEM,Fusarium solani [18]; F. solani on PDA,6.3 ± 1.5 µg/mL
same,IC50 ± SEM,Fusarium solani [18]; F. solani on YTSA,9.6 ± 0.5 µg/mL
same,MIC ± SEM,Fusarium solani [18]; F. solani on YTSA,19.9 ± 1.2 µg/mL
same,phytotoxicity,Delphinium flowers; 25 mg/L,did not show overt phytotoxicity
same,phytotoxicity,Delphinium flowers; 50 mg/L,proved to be phytotoxic
same,MIC + SEM,"Fusarium solani [19]; Broth, Fusarium solani",2.5 ± 0.1
same,MIC against F. solani in PDB (n),Fusarium solani [19]; [21],2.2 ± 0.1
same,concentration sufficient to eliminate fungal pathogens in the growth media,fungal pathogens [20],15 mg/L
